The record followed here is US7468443B2, “Alkyl ether derivatives or salts thereof” (Toyama Chemical Co., Ltd., priority 2001, dated 2008).

One data set has as its system PC12 cells. As to the kind of experiment: Activity to accelerate neurite outgrowth (NGF-treated PC12 cells). The note with it: test compound 10 μM with 2.5s-NGF 40 ng/mL, 48 hours; neutrite outgrowth rate due to NGF taken as 100%. The data set is classed as cell-based, rat. As for the experimental part:
[Activity to Accelerate Neurite Outgrowth]
PC12 cells [rat adrenomedullary chromaffinoma (NGF responders)] were cultured in an incubator (5% CO2, 37° C.) by using RPMI1640 medium (available from Nissui Pharmaceutical Co., Ltd.) containing 5% heat inactivated (56° C., 30 minutes) horse serum (available from Bio-Whittaker Inc.), 5% heat inactivated (56° C., 30 minutes) fetal calf serum (available from Sigma Chemical Co.) and 25 μg/ml gentamicin (available from GIBCO BRL).
The cultured PC12 cells were incubated at 37° C. for 30 minutes in phosphate-buffered physiological saline containing 1 mM EDTA, to be detached from a culture flask. The concentration of the cultured PC12 cells was adjusted to 5×10^4 cells/mL with RPMI1640 medium containing 1.5% heat inactivated horse serum, 1.5% heat inactivated fetal calf serum and 25 μg/ml gentamicin, and the resulting cell suspension was dispensed in 2 ml portions into 35-mm tissue culture dishes (mfd. by Falcon Inc.) coated with 0.01% polyornithine [dissolved in 150 mM borate buffer (pH 8.4)]. Then, 2.5s-NGF (available from Wako Pure Chemical Industries, Ltd.) [dissolved in phosphate-buffered physiological saline containing 0.1% bovine serum albumin] and each test compound were added to the medium at the same time so as to adjust their final concentrations to 40 ng/mL and 10 μM, respectively, followed by culturing under conditions of 5% CO2 and 37° C. After 48 hours of the culturing, cells were fixed in a 10% neutral formalin solution for 30 minutes, washed with phosphate-buffered physiological saline and distilled water, and then dried. […] The percentage of the number of cells having an neutrite extended to a length longer than the diameter of the cell body relative to the total number of cells observed (neutrite outgrowth rate) was calculated.
The activity to accelerate neutrite outgrowth was calculated according to the following expression as a neutrite outgrowth acceleration rate attained by the addition of each test compound, by taking a neutrite outgrowth rate due to NGF as 100%: (neutrite outgrowth rate attained by addition of each test compound)/(neutrite outgrowth rate due to NGF)×100 (%)

Data set [1] can be described thus: Metabolism in human liver microsomes. The data set is classed as in vitro ADME. The note with it: incubation at 37° C. for 60 minutes, pooled human liver microsomes, NADPH generating system. As for the experimental part:
[Metabolism in Human Liver Microsomes]
In a test tube were placed 50 μL of 100 mmol/L potassium phosphate buffer (pH 7.4) and 25 μL of 3 mg protein/mL pooled human liver microsomes (available from Gentest Inc.), and a solution prepared by blending 10 μL of 66 mmol/L sodium glucose 6-phosphate, 10 μL of 10 units/mL glucose 6-phosphate dehydrogenase, 10 μL of 26 mmol/L nicotinamide adenine dinucleotide phosphate oxidized form, 10 μL of 66 mmol/L magnesium chloride and 135 μL of 100 mmol/L potassium phosphate buffer (pH 7.4) was added thereto, followed by preincubation for 5 minutes. Thereto was added 50 μL of each test compound to a concentration of 6 μmol/L to initiate the reaction, and incubation was carried out at 37° C. for 60 minutes (final volume: 300 μL). The reaction was terminated by the addition of 600 μL of acetonitrile, followed by centrifugation at 12000×g and at 4° C. for 15 minutes. The supernatant was separated, concentrated by centrifugation under reduced pressure, and then subjected to high performance liquid chromatography, and the amount of the residual test compound after the metabolic reaction was determined.
The residual rate was calculated by the following equation: Residual rate (%)=[(peak area due to the test compound after 60 minutes of the reaction)/(peak area due to the test compound in the case of stopping the reaction by adding acetonitrile simultaneously with the addition of the test compound after the preincubation)]×100
On the technique in general: Liver microsomes are vesicles of endoplasmic reticulum, rich in cytochrome P450 enzymes.

The subject of data set [2] is cultured neurons from cerebral cortices. Description: Activity to inhibit the neuronal death induced by Aβ (MTT assay). The data set is classed as cell-based, Wistar strain rats. The note with it: concentration of 1 μM; Aβ (25 to 35 residues) 20 μmol/L. The protocol: [Activity to Inhibit the Neuronal Death Induced by Aβ]
Inhibitory effect on the death of cultured neurons induced by Aβ was investigated by modifying the method described in Brain Res., vol. 639, page 240 (1994).
Cerebral cortices isolated from the brains of embryos (aged 17 to 19 days) of Wistar strain rats were sliced, and then neurons were dissociated by trypsin treatment. The cells were seeded into a 48-well tissue culture plate at a density of 1×10^5 cells per well and cultured under conditions of 5% CO2 and 37° C. on Dulbecco's modified Eagle's medium added B27 supplement (available from GIBCO BRL) and 3.6 mg/mL glucose.
On the 12th to 13th day of the culture, a potassium chloride solution was added to the medium to adjust the final concentration of potassium chloride to 25 mmol/L. Immediately after this addition, each test compound was added to the medium. After 24 hours, Aβ (a peptides comprising 25 to 35 residues) dissolved in distilled water was added to the medium at a final concentration of 20 μmol/L. After another 24 hours, the medium was replaced with Dulbecco's modified Eagle's medium added B27 supplement and 3.6 mg/mL glucose and test compound.
The inhibitory activity of the test compound against the death of cultured neurons was determined by inhibition against the decrease of reducing ability of MMT. That is, MTT assay [J. Immuno. Methods, vol. […] Inhibition rate=[(MTT assay value of a group treated with Aβ and the drug)−(MTT assay value of a group treated with Aβ)]/[MTT assay value of an untreated group−MTT assay value of a group treated with Aβ]×100 (%).
For orientation: Tetrazolium dyes change colour on reduction, which living cells bring about.

Another data set deals with sciatic nerve. Description: Activity to accelerate nerve regeneration (cut sciatic nerve, silicone tube model). The data set is classed as in vivo, SD strain rats. The note with it: 1 mg/kg orally once a day from the seventh day; measured 21 days after cutting the nerve; regeneration distance relative to control group x100. As for the experimental part:
[Activity to Accelerate Nerve Regeneration]
The test was carried out according to the method described in J. Pharmaco. Exp. Ther., Vol. 290, page 348 (1999) and Neuroscience, vol. 88, page 257 (1999).
SD strain rats (male, aged 6 to 7 weeks, and weighing 170 to 280 g) were anesthetized with pentobarbital, and the left sciatic nerve of each rat was exposed in the femoral region, separated from the surrounding connective tissue, and then cut at a distal position which was about 1 cm apart from the gluteus. The ends of the nerve were inserted into a sterilized silicone tube with a length of 8 mm (inside diameter 1.3 mm, and outside diameter 1.8 mm) to a depth of 3.5 mm so that a space of 1 mm might be formed in the middle of the tube. The ends of the nerve were fixed and the nerve was put back to the muscular tissue together with the tube, after which the incised part was sutured. On the seventh day, each test compound dissolved in distilled water was orally administered in a dose of 1 mg/kg, and thereafter the test compound was administered once a day for 13 days in the same manner as above.
Twenty-one days after cutting the nerve, the sciatic nerve was exposed again under pentobarbital anesthesia, and the nerve in the femoral region and the crural region was separated from the surrounding connective tissues, after which the silicone tube at the cut part was removed. A stimulation electrode was set on the proximal side with respect to the cut position, and a recording electrode was set at the most distal position in the crural region. An electric stimulus (voltage: 2 V, delay: 1 msec, and duration: 100 μsec) was given, and an action potential induced by the stimulus was recorded. The recording electrode was gradually moved toward the proximal, and the distance between the cut position and the most distal position at which an action potential had been obtained was measured as regeneration distance. Only distilled water was administered to a control group.
The sciatic nerve regeneration rate of the test compound was calculated according to the following expression: (regeneration distance of drug-treated group)/(regeneration distance of control group)×100 (%)

Each structure is given as a SMILES string. Structures can show the parent of a compound that is named as a salt.

The melting point is the temperature, or range, at which the solid turns liquid. Turning to `OC1CN(CCOCCc2ccc3sccc3c2)C1` (as salt: hydrochloride) [Example 2, 1-{2-[2-(1-benzothiophen-5-yl)ethoxy]ethyl}-3-azetidinol hydrochloride], the melting point was 101 to 102 °C.

As for `OC1CN(CCOCCc2ccc3sccc3c2)C1` [Example 2, 1-{2-[2-(1-benzothiophen-5-yl)ethoxy]ethyl}-3-azetidinol hydrochloride], in the data set with PC12 cells, the “neutrite outgrowth acceleration rate” value was determined as 265%.

As to `OC1CN(CCCOCCc2ccc3ccsc3c2)C1` [Example 4, 1-{3-[2-(1-benzothiophen-6-yl)ethoxy]propyl}-3-azetidinol hydrochloride], in data set [1], the residual rate was found to be 80%. For the same compound, the “inhibition rate against decrease of MTT assay value induced by Aβ” value (“inhibition rate against decrease” for short) in data set [2] turned out to be 63%. In addition, in the data set on sciatic nerve, the “sciatic nerve regeneration rate” value is on record as 167%.

Take `OC1CN(CCCOCCc2cc3ccccc3s2)C1` [Example 6, 1-{3-[2-(1-benzothiophen-2-yl)ethoxy]propyl}-3-azetidinol hydrochloride]: the “neutrite outgrowth acceleration rate” value in the data set with PC12 cells came out at 300%. Further, the “inhibition rate against decrease” value in data set [2] turned out to be 48%.

For `OC1CN(CCCOCCc2ccc3sccc3c2)C1` [Example 10, 1-{3-[2-(1-benzothiophen-5-yl)ethoxy]propyl}-3-azetidinol hydrochloride], the residual rate in data set [1] is reported as 70%. Further, in data set [2], the “inhibition rate against decrease” value stood at 42%. Further, in the data set with sciatic nerve, the “sciatic nerve regeneration rate” value worked out at 186%.

As to `OC1CN(CCCOCCc2cccc3sccc23)C1` [Example 12, 1-{3-[2-(1-benzothiophen-4-yl)ethoxy]propyl}-3-azetidinol hydrochloride], the “neutrite outgrowth acceleration rate” value in the data set with PC12 cells is on record as 299%. In addition, in data set [1], the residual rate was found to be 83%. Further, the “sciatic nerve regeneration rate” value in the data set with sciatic nerve was determined as 142%.

With `OC1CN(CCCOCCc2csc3ccccc23)C1` [Example 14, 1-{3-[2-(1-benzothiophen-3-yl)ethoxy]propyl}-3-azetidinol hydrochloride], the “neutrite outgrowth acceleration rate” value in the data set with PC12 cells was 207%. Besides, the residual rate in data set [1] is 75%. Moreover, the “inhibition rate against decrease” value in data set [2] was determined as 48%. The “sciatic nerve regeneration rate” value in the data set with sciatic nerve stood at 150%.

As to `OC1CCN(CCOCCc2cccc3ccccc23)C1` (stereo not shown) [Example 29, 1-{2-[2-(1-naphthyl)ethoxy]-ethyl}-3-pyrrolidinol oxalate], in the data set with PC12 cells, the “neutrite outgrowth acceleration rate” value is 212%.

For `O[C@H]1CCN(CCOCCc2ccc3sccc3c2)C1` [Example 31, (3S)-1-{2-[2-(1-benzothiophen-5-yl)ethoxy]ethyl}-3-pyrrolidinol oxalate], the “inhibition rate against decrease” value in data set [2] was 50%. In addition, in the data set on sciatic nerve, the “sciatic nerve regeneration rate” value is 155%.

Turning to `O[C@@H]1CCN(CCOCCc2ccc3sccc3c2)C1` [Example 33, (3R)-1-{2-[2-(1-benzothiophen-5-yl)ethoxy]ethyl}-3-pyrrolidinol oxalate], the “inhibition rate against decrease” value in data set [2] stood at 54%. The “sciatic nerve regeneration rate” value with sciatic nerve was determined as 161%.

Turning to `COc1cc2ccoc2cc1CCOCCN1CCC(O)C1` (stereo not shown) [Example 51, 1-{2-[2-(5-methoxy-1-benzofuran-6-yl)ethoxy]ethyl}-3-pyrrolidinol oxalate], the “neutrite outgrowth acceleration rate” value with PC12 cells was determined as 216%.

As to `OC1CCN(CCCOCCc2ccc3sccc3c2)C1` (stereo not shown) [Example 59, 1-{3-[2-(1-benzothiophen-5-yl)ethoxy]propyl}-3-pyrrolidinol hydrochloride], the “neutrite outgrowth acceleration rate” value in the data set with PC12 cells is 241%.

Turning to `OC1CCN(CCCOCCc2ccc3occc3c2)C1` (stereo not shown) [Example 61, 1-{3-[2-(1-benzofuran-5-yl)ethoxy]propyl}-3-pyrrolidinol hydrochloride], the residual rate in data set [1] was 74%. The “inhibition rate against decrease” value in data set [2] is listed as 52%.

With `OC1CCN(CCOCCc2ccc3ccccc3c2)C1` (stereo not shown) [Example 69, 1-{2-[2-(2-naphthyl)ethoxy]ethyl}-3-pyrrolidinol oxalate], in the data set with PC12 cells, the “neutrite outgrowth acceleration rate” value amounted to 233%. The residual rate in data set [1] is reported as 74%. The “inhibition rate against decrease” value in data set [2] worked out at 70%.

Turning to `O[C@@H]1CN(CCOCCc2ccc3sccc3c2)C[C@@H]1O` [Example 71, (3R, 4S)-1-{2-[2-(1-benzothiophen-5-yl)ethoxy]ethyl}-3,4-pyrrolidinediol hydrochloride], the “neutrite outgrowth acceleration rate” value with PC12 cells is listed as 183%. This compound also displayed a residual rate in data set [1] of 80%.

Regarding `NC1CCN(CCCOCCc2ccc3sccc3c2)C1` (stereo not shown) [Example 74, 1-{3-[2-(1-benzothiophen-5-yl)ethoxy]propyl}-3-pyrrolidinamine oxalate], in the data set on PC12 cells, the “neutrite outgrowth acceleration rate” value is recorded as 246%. The compound also returned a residual rate in data set [1] of 71%. Also, in data set [2], the “inhibition rate against decrease” value is 50%.

Take `CN(C)C1CCN(CCCOCCc2ccc3sccc3c2)C1` (stereo not shown) [Example 80, 1-{3-[2-(1-benzothiophen-5-yl)ethoxy]propyl}-N,N-dimethyl-3-pyrrolidinamine dihydrochloride]: the “neutrite outgrowth acceleration rate” value in the data set on PC12 cells turned out to be 190%. In addition, the “inhibition rate against decrease” value in data set [2] is listed as 75%.

On to `OC1CN(CCCOCCc2ccc3sccc3c2)C1` [Example 81, 1-{3-[2-(1-benzothiophen-5-yl)ethoxy]propyl}-3-azetidinol 1/2 fumarate], for which, in the data set on PC12 cells, the “neutrite outgrowth acceleration rate” value is on record as 190%.
